Values quoted from earlier work in paper PMC12394912 (RSC Chemical Biology, 2025).

Cc1ncsc1-c1ccc(CNC(=O)[C@@H]2C[C@@H](O)CN2C(=O)[C@@H](NC(=O)COCCOCCOCCNC(=O)C[C@@H]2N=C(c3ccc(Cl)cc3)c3c(sc(C)c3C)-n3c(C)nnc32)C(C)(C)C)cc1 [MZ1]
PAMPA permeability, fold lower than E3 ligand VH032: ~290 fold | PAMPA permeability, fold lower than POI ligand JQ1: approximately 190 fold
